US12173018B2, “Penicillin-binding protein inhibitors” (priority 2018, dated 2024)
Values after ≈ are worked out from the molar mass of the structure shown. Counter-ions that a name gives are not always drawn. Like-named read-outs stand apart in the source and are kept apart here.

Legend:
E. coli AG100A = assay: microbe, parasite or virus in culture; type: cell-based; details: Escherichia coli, read-out: MIC E. coli AG100A
In short: (§1)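 Following CLSI guidance, growth inhibition is measured in Mueller-Hinton broth with divalent cations. Inoculum 5×10^5 CFU/mL; incubation 16-20 hours, 37° C; endpoint is visual absence of growth.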

K. pneumoniae UMM = assay: microbe, parasite or virus in culture; type: cell-based; details: Klebsiella pneumoniae; K. pneumoniae UMM producing SHV-5 and KPC-2; read-out: MIC K. pneumoniae UMM
In short: as §1

E. coli 901C = assay: microbe, parasite or virus in culture; type: cell-based; details: Escherichia coli; hyper-permeable E. coli 901C, broth microdilution; read-out: MIC E. coli 901C
In short: as §1

[1] = system: engineered strain of Escherichia coli harboring CTX-M15; assay: microbe, parasite or virus in culture; type: cell-based; details: for MIC: Escherichia coli, read-out: Microbiological Activity (MIC in mg/L), E. coli DH5α/pLBII-CTX-M15, engineered strain producing CTX-M15
E. coli ATCC 25922 = assay: Broth microdilution MIC, E. coli ATCC 25922; type: cell-based; details: Escherichia coli
In short: as §1

E. coli AG100 = assay: Broth microdilution MIC, E. coli AG100 (wild-type parent); type: cell-based; details: Escherichia coli; wild-type parent E. coli AG100, broth microdilution; read-out: MIC E. coli AG100
In short: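 Starting inoculum of 5×10^5 CFU/mL, from colonies grown 3-5 h in Mueller-Hinton broth with divalent cations, added to two-fold compound dilution series.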

[2] = system: E. coli DH5α empty pLBII vector control strain; assay: microbe, parasite or virus in culture; type: cell-based, Escherichia coli; details: for MIC: Escherichia coli, read-out: Microbiological Activity (MIC in mg/L), E. coli DH5α/pLBII
Procedure: Briefly, cryo-preserved bacterial cultures of challenge strains are streaked for isolation on appropriate agar medium, in this case Mueller Hinton II agar. Following incubation to allow growth of the colonies, plates are sealed with parafilm and stored refrigerated for up to two weeks. For preparation of assay inoculum and to ensure low variability, at least 5 colonies are picked from the agar plates with an inoculating loop and aseptically transferred to a culture tube containing 3 mL of Mueller-Hinton Broth (supplemented with divalent cations to required levels based on Manufacturers' certification). The broth culture is grown for 3-5 hours at 37° C. with shaking at 200 rpm. Meanwhile, 2-fold serial dilutions of test compounds are conducted in a 96 well plate with a final volume of 75 μL per well at 2-fold the final desired concentration. After the dilution plates are set up the growing cultures are then diluted in a cuvette containing MH II broth and the optical density is measured at 600 nm. The Inoculum is diluted such that 75 μL of this culture in Mueller-Hinton Broth results in a starting bacterial concentration of 5×10^5 CFU/mL when added to the dilution plates. The plates are incubated for 16-20 hours at 37° C. The MIC values are read visually as the lowest concentration well with no bacterial growth.
To determine if test compounds were affected by CTX-M15, the most abundant extended spectrum […] in clinical settings worldwide, the inhibition of the growth of an engineered strain of Escherichia coli harboring CTX-M15 was tested. This strain was constructed by cloning the gene encoding CTX-M15 into the NdeI and BamHI restriction endonuclease sites of plasmid pLBII, placing the gene(s) under the control of the Lac promoter. The constructed expression plasmid for CTX-M15 was used to transform competent E. coli DH5α cells to make the engineered strain, including an empty pLBII vector control strain. The classic cell based broth microdilution MIC assay was employed as described above with the addition of control antibiotics, known to be degraded by β-lactamases (Ceftazidime, piperacillin and piperacillin+tazobactam).

E. coli PBP1b = E. coli PBP1b (Escherichia coli (strain K12), UniProt P02919); assay: Radioligand competition binding assay with 14C-labeled boronic acid probe, PBP1b
E. coli PBP3 = E. coli PBP3 (Escherichia coli (strain K12), UniProt P0AD68); assay: E. coli PBP3 Bocillin-FL fluorescence polarization competition binding assay
In short: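 Polarization at 490/520 nm was monitored for 60 minutes in pH 8.0 Hepes buffer containing 300 mM NaCl and 5% glycerol, with compound spanning 0–1000 μM.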

[3] = ATCC25922, read-out: MIC E. coli 25922

Chain of E. coli PBP3 (P0AD68 whole entry): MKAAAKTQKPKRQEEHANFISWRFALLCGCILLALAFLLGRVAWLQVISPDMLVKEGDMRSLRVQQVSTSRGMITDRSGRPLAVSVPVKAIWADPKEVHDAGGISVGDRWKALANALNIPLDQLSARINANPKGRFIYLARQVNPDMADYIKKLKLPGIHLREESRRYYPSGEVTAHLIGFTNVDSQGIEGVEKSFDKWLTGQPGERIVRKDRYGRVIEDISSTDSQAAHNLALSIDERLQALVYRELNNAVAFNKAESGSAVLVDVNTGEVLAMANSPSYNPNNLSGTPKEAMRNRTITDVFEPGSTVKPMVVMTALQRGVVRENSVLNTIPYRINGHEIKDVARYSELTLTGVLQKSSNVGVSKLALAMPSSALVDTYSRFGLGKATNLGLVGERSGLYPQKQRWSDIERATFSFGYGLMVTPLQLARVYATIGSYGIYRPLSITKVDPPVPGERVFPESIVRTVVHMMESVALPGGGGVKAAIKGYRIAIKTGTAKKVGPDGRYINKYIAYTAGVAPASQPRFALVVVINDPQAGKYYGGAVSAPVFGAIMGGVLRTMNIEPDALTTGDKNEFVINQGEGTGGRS
Chain of E. coli PBP1b (P02919 whole entry): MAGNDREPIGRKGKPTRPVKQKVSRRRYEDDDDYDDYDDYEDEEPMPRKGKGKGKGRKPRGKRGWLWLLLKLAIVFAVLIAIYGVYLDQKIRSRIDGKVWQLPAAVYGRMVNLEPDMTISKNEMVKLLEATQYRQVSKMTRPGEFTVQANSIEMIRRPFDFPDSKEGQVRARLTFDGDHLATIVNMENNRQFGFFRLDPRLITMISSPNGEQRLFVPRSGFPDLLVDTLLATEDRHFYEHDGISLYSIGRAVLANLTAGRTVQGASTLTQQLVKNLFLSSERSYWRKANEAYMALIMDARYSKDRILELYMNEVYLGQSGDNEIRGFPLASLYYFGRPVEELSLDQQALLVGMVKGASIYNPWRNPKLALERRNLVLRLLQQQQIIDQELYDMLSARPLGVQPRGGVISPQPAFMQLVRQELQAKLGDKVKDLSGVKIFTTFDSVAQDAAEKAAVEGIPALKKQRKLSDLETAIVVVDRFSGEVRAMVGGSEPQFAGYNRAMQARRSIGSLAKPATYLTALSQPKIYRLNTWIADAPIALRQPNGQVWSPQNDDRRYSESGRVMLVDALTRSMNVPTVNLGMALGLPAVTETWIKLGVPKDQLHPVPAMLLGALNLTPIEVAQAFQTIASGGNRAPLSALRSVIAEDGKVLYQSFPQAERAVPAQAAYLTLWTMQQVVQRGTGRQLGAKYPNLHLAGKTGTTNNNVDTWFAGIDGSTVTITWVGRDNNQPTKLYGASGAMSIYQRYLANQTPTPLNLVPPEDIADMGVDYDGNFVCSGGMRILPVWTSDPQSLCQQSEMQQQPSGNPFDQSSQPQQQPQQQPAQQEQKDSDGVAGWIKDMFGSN

Row | Compound | MIC [1] | MIC [2] | EC50 (E. coli PBP3) | also measured
1 | CCN1CCN(C(=O)N2C[C@@H](O)C[C@@H]2C(=O)N[C@H]2Cc3cccc(C(=O)O)c3OB2O)C(=O)C1=O [Example 9, (R)-3-((2R,4S)-1-(4-ethyl-2,3-dioxopiperazine-1-carbonyl)-4-hydroxypyrrolidine-2-carboxamido)-2-hydroxy-3,4-dihydro-2H-benzo[e][1,2]oxaborinine-8-carboxylic acid] | > 512 mg/L | > 512 mg/L | – | MIC (E. coli AG100A): > 128 µg/mL; MIC (K. pneumoniae UMM): > 128 µg/mL; MIC (E. coli 901C): > 128 µg/mL; MIC (E. coli ATCC 25922; [3]): > 128 µg/mL; MIC (E. coli AG100): > 128 µg/mL
2 | CCN1CCN(C(=O)NC(C(=O)N[C@H]2Cc3cccc(C(=O)O)c3OB2O)c2nsc(N)n2)C(=O)C1=O (stereo partly drawn) [Example 10, (3R)-3-(2-(5-amino-1,2,4-thiadiazol-3-yl)-2-(4-ethyl-2,3-dioxopiperazine-1-carboxamido)acetamido)-2-hydroxy-3,4-dihydro-2H-benzo[e][1,2]oxaborinine-8-carboxylic acid] | 8 to 16 mg/L (≈ 15.1 to 30.1 µM) | 8 to 16 mg/L (≈ 15.1 to 30.1 µM) | – | MIC (E. coli AG100A): 2 to 4 µg/mL; MIC (K. pneumoniae UMM): 8 to 16 µg/mL; MIC (E. coli 901C): 0.5 to 1 µg/mL; MIC (E. coli ATCC 25922; [3]): 8 to 16 µg/mL; MIC (E. coli AG100): 32 to 64 µg/mL
3 | CCN1CCN(C(=O)N[C@H](CN)C(=O)N[C@H]2Cc3cccc(C(=O)O)c3OB2O)C(=O)C1=O [Example 11, (R)-3-((R)-3-amino-2-(4-ethyl-2,3-dioxopiperazine-1-carboxamido)propanamido)-2-hydroxy-3,4-dihydro-2H-benzo[e][1,2]oxaborinine-8-carboxylic acid, trifluoroacetic acid salt] | 128 to 256 mg/L | 128 to 256 mg/L | – | EC50 (E. coli PBP1b): < 10 µM
4 | Nc1nc(C(NC(=O)N2CCN(CCF)C(=O)C2=O)C(=O)N[C@H]2Cc3cccc(C(=O)O)c3OB2O)c(Cl)s1 (stereo partly drawn) [Example 13, (3R)-3-(2-(2-amino-5-chlorothiazol-4-yl)-2-(4-(2-fluoroethyl)-2,3-dioxopiperazine-1-carboxamido)acetamido)-2-hydroxy-3,4-dihydro-2H-benzo[e][1,2]oxaborinine-8-carboxylic acid] | 8 to 16 mg/L (≈ 13.7 to 27.5 µM) | 8 to 16 mg/L (≈ 13.7 to 27.5 µM) | 30 to 500 µM | MIC (E. coli AG100A): 2 to 4 µg/mL; MIC (K. pneumoniae UMM): 32 to 64 µg/mL; MIC (E. coli 901C): < 0.25 µg/mL; MIC (E. coli ATCC 25922; ATCC25922, E. coli ATCC 25922, broth microdilution, read-out: MIC E. coli 25922): 32 to 64 µg/mL; MIC (E. coli AG100): 32 to 64 µg/mL
5 | CCN1CCN(C(=O)NCC(CN)(CO)C(=O)N[C@H]2Cc3cccc(C(=O)O)c3OB2O)C(=O)C1=O (stereo partly drawn) [Example 15, (3R)-3-(3-amino-2-((4-ethyl-2,3-dioxopiperazine-1-carboxamido)methyl)-2-(hydroxymethyl)propanamido)-2-hydroxy-3,4-dihydro-2H-benzo[e][1,2]oxaborinine-8-carboxylic acid, trifluoroacetic acid salt] | > 512 mg/L | > 512 mg/L | – | –
6 | CCN1CCN(C(=O)NC(C(=O)N[C@H]2Cc3cccc(C(=O)O)c3OB2O)c2csc(N)n2)CC1=O (stereo partly drawn) [Example 18, (3R)-3-(2-(2-aminothiazol-4-yl)-2-(4-ethyl-3-oxopiperazine-1-carboxamido)acetamido)-2-hydroxy-3,4-dihydro-2H-benzo[e][1,2]oxaborinine-8-carboxylic acid] | 128 to 256 mg/L (≈ 248 to 496 µM) | 128 to 256 mg/L (≈ 248 to 496 µM) | 30 to 500 µM | –
7 | CCN1CCN(C(=O)C[C@H](N)C(=O)N[C@H]2Cc3cccc(C(=O)O)c3OB2O)C(=O)C1=O [Example 19, (R)-3-((S)-2-amino-4-(4-ethyl-2,3-dioxopiperazin-1-yl)-4-oxobutanamido)-2-hydroxy-3,4-dihydro-2H-benzo[e][1,2]oxaborinine-8-carboxylic acid] | > 512 mg/L | > 512 mg/L | – | –
8 | CCN1CCN(C(=O)NC(C(=O)N[C@H]2Cc3cccc(C(=O)O)c3OB2O)c2ccc(OC)c(OC)c2)C(=O)C1=O (stereo partly drawn) [Example 21, (3R)-3-(2-(3,4-dimethoxyphenyl)-2-(4-ethyl-2,3-dioxopiperazine-1-carboxamido)acetamido)-2-hydroxy-3,4-dihydro-2H-benzo[e][1,2]oxaborinine-8-carboxylic acid] | 128 to 256 mg/L (≈ 225 to 450 µM) | 128 to 256 mg/L (≈ 225 to 450 µM) | 30 to 500 µM | –
9 | CCN1CCN(C(=O)N[C@H](CC(=O)O)C(=O)N[C@H]2Cc3cccc(C(=O)O)c3OB2O)C(=O)C1=O [Example 23, (R)-3-((R)-3-carboxy-2-(4-ethyl-2,3-dioxopiperazine-1-carboxamido)propanamido)-2-hydroxy-3,4-dihydro-2H-benzo[e][1,2]oxaborinine-8-carboxylic acid] | > 512 mg/L | > 512 mg/L | > 500 µM | EC50 (E. coli PBP1b): > 100 µM
10 | Nc1nc(C(NC(=O)c2cccc(O)c2O)C(=O)N[C@H]2Cc3cccc(C(=O)O)c3OB2O)cs1 (stereo partly drawn) [Example 25, (3R)-3-(2-(2-aminothiazol-4-yl)-2-(2,3-dihydroxybenzamido)acetamido)-2-hydroxy-3,4-dihydro-2H-benzo[e][1,2]oxaborinine-8-carboxylic acid] | > 512 mg/L | > 512 mg/L | – | EC50 (E. coli PBP1b): < 10 µM
11 | CCN1CCN(C(=O)N2C[C@H](O)C[C@@H]2C(=O)N[C@H]2Cc3cccc(C(=O)O)c3OB2O)C(=O)C1=O [Example 28, (R)-3-((2R,4R)-1-(4-ethyl-2,3-dioxopiperazine-1-carbonyl)-4-hydroxypyrrolidine-2-carboxamido)-2-hydroxy-3,4-dihydro-2H-benzo[e][1,2]oxaborinine-8-carboxylic acid] | > 512 mg/L | > 512 mg/L | – | –
12 | CCN1CCN(C(=O)NC(C(=O)N[C@H]2Cc3cccc(C(=O)O)c3OB2O)c2cc(OC)c(OC)c(OC)c2)C(=O)C1=O (stereo partly drawn) [Example 30, (3R)-3-(2-(4-ethyl-2,3-dioxopiperazine-1-carboxamido)-2-(3,4,5-trimethoxyphenyl)acetamido)-2-hydroxy-3,4-dihydro-2H-benzo[e][1,2]oxaborinine-8-carboxylic acid] | > 512 mg/L | > 512 mg/L | – | –
13 | CCN1CCN(C(=O)C[C@@H](N)C(=O)N[C@H]2Cc3cccc(C(=O)O)c3OB2O)C(=O)C1=O [Example 32, (R)-3-((R)-2-amino-4-(4-ethyl-2,3-dioxopiperazin-1-yl)-4-oxobutanamido)-2-hydroxy-3,4-dihydro-2H-benzo[e][1,2]oxaborinine-8-carboxylic acid] | > 512 mg/L | > 512 mg/L | – | –
14 | CCN1CCN(C(=O)N[C@H](C(=O)N[C@H]2Cc3cccc(C(=O)O)c3OB2O)c2ccc(O)c(O)c2)C(=O)C1=O [Example 38, (R)-3-((S)-2-(3,4-dihydroxyphenyl)-2-(4-ethyl-2,3-dioxopiperazine-1-carboxamido)acetamido)-2-hydroxy-3,4-dihydro-2H-benzo[e][1,2]oxaborinine-8-carboxylic acid] | 2 to 4 mg/L (≈ 3.7 to 7.4 µM) | 2 to 4 mg/L (≈ 3.7 to 7.4 µM) | 30 to 500 µM | –
15 | CCN1CCN(C(=O)N[C@@H](C(=O)N[C@@H]2C(=O)N3[C@@H]2SC(C)(C)[C@@H]3C(=O)O)c2ccccc2)C(=O)C1=O [piperacillin, reference compound] | – | – | – | MIC in CTX-M15 producer compared with parent strain with empty pLBII plasmid ([1]; engineered E. coli DH5α with CTX-M15 vs empty vector control): weaker MICs in the CTX-M15 producer; Microbiological Activity (MIC in mg/L), E. coli DH5α/pLBII-CTX-M15 ([1]; engineered strain producing CTX-M15): B (B represents an MIC of 128 to 256 μg/mL); Microbiological Activity (MIC in mg/L), E. coli DH5α/pLBII [2]: F (F represents an MIC<1 μg/mL)
